Measurements taken from patent publication US20080188490A1, “Acetylene Derivatives” (priority 2005, published 2008).
pIC50: −log10 of the molar value. Structures can show the parent of a compound that is named as a salt. Each block holds one compound with its values, some of them ahead of it.

Experiments:
[1] = system: stress-induced hyperthermia; assay: stress-induced hyperthermia in mice; type: in vivo; details: control hyperthermia 0.98±0.08° C.
Procedure: A. Lecci et al., Psychopharmacol. 101, 255-261]. At doses of about 0.1 to about 30 mg/kg p.o., selected agents of the invention reverse the stress-induced hyperthermia.
With (±)-(1R,3R)-3-(4-Chloro-phenylamino)-1-(3-chloro-phenylethynyl)-cyclohexanol, a stress-induced hyperthermia of 0.98±0.08° C. was reduced to 0.66±0.06° C. at 1 mg/kg p.o., to […] at 3 mg/kg p.o.; to 0.58±0.06° C. at 10 mg/kg p.o. and to 0.33±0.04° C. at 30 mg/kg p.o. (p<0.05; p<0.0011; p<0.01; p<0.001 respectively).

hmGluR5 = biological target: T1, hmGluR5 (Homo sapiens, UniProt P41594); assay: inhibition of quisqualate-induced inositol phosphate turnover in hmGluR5 expressing cells; type: cell-based; details: agonist quisqualate, read-out: IC50 concentration, inhibition of quisqualate-induced inositol phosphate turnover
T1 construct: expressed in transfected cells
T1 sequence (P41594 21-1180 isoform P41594-2 limits assumed): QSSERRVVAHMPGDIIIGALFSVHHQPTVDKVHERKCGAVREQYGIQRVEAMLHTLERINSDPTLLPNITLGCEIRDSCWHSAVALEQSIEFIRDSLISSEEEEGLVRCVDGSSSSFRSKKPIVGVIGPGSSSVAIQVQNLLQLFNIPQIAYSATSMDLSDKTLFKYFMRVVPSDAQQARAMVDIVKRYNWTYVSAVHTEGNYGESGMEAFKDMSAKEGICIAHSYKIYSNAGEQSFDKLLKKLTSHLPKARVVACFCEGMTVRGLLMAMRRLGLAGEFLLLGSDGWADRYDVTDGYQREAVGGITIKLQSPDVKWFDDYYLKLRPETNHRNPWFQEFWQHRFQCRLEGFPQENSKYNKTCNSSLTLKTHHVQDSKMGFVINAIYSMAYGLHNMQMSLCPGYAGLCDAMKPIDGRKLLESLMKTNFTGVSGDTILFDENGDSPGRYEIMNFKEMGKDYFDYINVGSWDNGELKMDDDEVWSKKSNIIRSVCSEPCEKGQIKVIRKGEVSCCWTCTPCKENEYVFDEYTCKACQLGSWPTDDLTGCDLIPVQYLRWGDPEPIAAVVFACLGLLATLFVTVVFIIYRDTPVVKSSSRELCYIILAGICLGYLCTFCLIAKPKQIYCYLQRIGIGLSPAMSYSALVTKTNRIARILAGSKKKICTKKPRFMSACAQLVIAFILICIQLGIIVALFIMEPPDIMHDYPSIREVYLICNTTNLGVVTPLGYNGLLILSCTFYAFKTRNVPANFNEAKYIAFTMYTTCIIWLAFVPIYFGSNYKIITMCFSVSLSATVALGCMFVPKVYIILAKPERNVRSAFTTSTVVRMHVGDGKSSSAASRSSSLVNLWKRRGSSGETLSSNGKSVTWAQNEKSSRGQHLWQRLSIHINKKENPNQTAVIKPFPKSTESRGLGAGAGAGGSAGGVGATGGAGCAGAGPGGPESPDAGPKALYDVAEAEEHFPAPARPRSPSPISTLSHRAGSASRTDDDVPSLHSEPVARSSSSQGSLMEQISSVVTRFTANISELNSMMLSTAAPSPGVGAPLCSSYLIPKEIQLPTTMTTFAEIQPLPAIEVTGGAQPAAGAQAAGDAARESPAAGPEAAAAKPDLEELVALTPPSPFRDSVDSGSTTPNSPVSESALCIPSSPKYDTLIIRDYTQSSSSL
Text: This can be determined in vitro for example at recombinant human metabotropic glutamate receptors, especially PLC-coupled subtypes thereof such as mGluR5, using different procedures like, for example, measurement of the inhibition of the agonist induced elevation of intracellular Ca^2+ concentration in accordance with L. P. Daggett et al., Neuropharm. Vol. 34, pages 871-886 (1995), P. J. Flor et al., J. Neurochem. Vol. 67, pages 58-63 (1996) or by determination to what extent the agonist induced elevation of the inositol phosphate turnover is inhibited as described by T. Knoepfel et al., Eur. J. Pharmacol. Vol. 288, pages 389-392 (1994), L. P. Daggett et al., Neuropharm. Vol. 67, pages 58-63 (1996) and references cited therein. Isolation and expression of human mGluR subtypes are described in U.S. Pat. No. 5,521,297. Selected agents of the invention show IC50 values for the inhibition of the agonist (e.g. glutamate or quisqualate) induced elevation of intracellular Ca2+ concentration or the agonist (e.g. glutamate or quisqualate) induced inositol phosphate turnover, measured in recombinant cells expressing hmGluR5a of about 1nM to about 50 μM.

melting point: 153 to 163 °C
Compound: O[C@]1(C#Cc2cccc(Cl)c2)CCC[C@@H](Nc2ccc(Cl)cc2)C1 (racemic) (as salt: hydrochloride) [Example 1, (±)-(1R,3R)-3-(4-Chloro-phenylamino)-1-(3-chloro-phenylethynyl)-cyclohexanol]

pIC50 (hmGluR5): 5.80
Compound: O[C@]1(C#Cc2cccc(Cl)c2)CCC[C@@H](Nc2ccc(Cl)cc2)C1 (racemic) [Example 1, (±)-(1R,3R)-3-(4-Chloro-phenylamino)-1-(3-chloro-phenylethynyl)-cyclohexanol]
stress-induced hyperthermia after treatment ([1]; 1 mg/kg p.o., p<0.05): 0.66±0.06 °C | stress-induced hyperthermia after treatment ([1]; 3 mg/kg p.o., p<0.0011): 0.43±10 °C | stress-induced hyperthermia after treatment ([1]; 10 mg/kg p.o., p<0.01): 0.58±0.06 °C | stress-induced hyperthermia after treatment ([1]; 30 mg/kg p.o., p<0.001): 0.33±0.04 °C

melting point: 83 to 88 °C
Compound: O[C@@]1(C#Cc2cccc(Cl)c2)CCC[C@H](Nc2cc(-c3ccco3)[nH]n2)C1 [Example 1.26, (1S,3S)-1-(3-Chloro-phenylethynyl)-3-(5-furan-2-yl-1H-pyrazol-3-ylamino)-cyclohexanol]

melting point: 78 to 85 °C
Compound: O[C@]1(C#Cc2cccc(Cl)c2)CCC[C@@H](Nc2cc(-c3ccco3)[nH]n2)C1 [Example 1.27, (1R,3R)-1-(3-Chloro-phenylethynyl)-3-(5-furan-2-yl-1H-pyrazol-3-ylamino)-cyclohexanol]
